# Assays:
# [1] = test system: IL-2 stimulated STAT5 phosphorylation in Tall-1 human T cell line (JAK3); test: Cellular JAK3 potency assay: inhibition of IL-2 stimulated pSTAT5 in Tall-1 T cells; format: cell-based; settings: IL-2 stimulated pSTAT5, Tall-1 T cells
# In short: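 Tall-1 cells, 45,000 per well, preincubated 1 hour with compound at 37 °C, then stimulated 30 minutes with IL-2 at 300 ng/ml final. pSTAT5 (Tyr694/699) in lysates quantified by AlphaLISA SureFire Ultra. pIC50 derived from inhibition curves, given as mean with SD.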
# Tyk2 = Tyk2 (Homo sapiens (Human), UniProt P29597); test: Biochemical Tyk2 kinase assay (LanthaScreen)
# Sequence of Tyk2 (P29597 whole entry): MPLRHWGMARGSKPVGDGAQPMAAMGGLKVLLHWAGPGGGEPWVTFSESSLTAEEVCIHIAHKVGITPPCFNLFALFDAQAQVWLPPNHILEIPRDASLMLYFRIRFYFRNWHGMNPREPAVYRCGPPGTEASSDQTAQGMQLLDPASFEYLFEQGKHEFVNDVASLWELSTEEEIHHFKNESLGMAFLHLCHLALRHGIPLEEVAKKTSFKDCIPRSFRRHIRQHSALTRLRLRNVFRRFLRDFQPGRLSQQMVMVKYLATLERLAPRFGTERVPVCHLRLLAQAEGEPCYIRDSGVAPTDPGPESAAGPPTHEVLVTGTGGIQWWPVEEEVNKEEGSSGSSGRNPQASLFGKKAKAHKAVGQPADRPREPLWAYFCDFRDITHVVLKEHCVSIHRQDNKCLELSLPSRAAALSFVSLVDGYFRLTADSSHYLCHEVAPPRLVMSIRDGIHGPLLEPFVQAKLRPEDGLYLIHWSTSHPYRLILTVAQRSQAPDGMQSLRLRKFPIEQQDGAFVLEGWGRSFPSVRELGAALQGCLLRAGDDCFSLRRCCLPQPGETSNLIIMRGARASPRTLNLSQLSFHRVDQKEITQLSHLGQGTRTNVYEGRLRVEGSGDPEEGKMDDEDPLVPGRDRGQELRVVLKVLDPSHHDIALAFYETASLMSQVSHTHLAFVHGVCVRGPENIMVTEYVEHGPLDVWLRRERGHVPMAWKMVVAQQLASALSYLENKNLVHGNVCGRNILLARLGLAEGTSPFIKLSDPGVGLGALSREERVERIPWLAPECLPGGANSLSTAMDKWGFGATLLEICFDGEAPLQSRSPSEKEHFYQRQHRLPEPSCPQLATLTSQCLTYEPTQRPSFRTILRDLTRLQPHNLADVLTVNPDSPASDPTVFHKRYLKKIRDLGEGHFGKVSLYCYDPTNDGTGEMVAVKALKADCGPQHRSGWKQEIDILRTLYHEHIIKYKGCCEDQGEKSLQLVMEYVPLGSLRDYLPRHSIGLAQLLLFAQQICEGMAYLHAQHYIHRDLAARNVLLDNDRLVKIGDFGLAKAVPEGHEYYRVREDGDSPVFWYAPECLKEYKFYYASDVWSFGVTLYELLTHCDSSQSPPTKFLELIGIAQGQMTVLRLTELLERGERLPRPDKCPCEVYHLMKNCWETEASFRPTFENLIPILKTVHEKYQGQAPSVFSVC
# In short: (§1)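 GST-JAK + GFP-STAT1 peptide, HEPES pH 7.5/MgCl2/EGTA/Brij-35 buffer; cpd preincubation 1 h RT; ATP start, 1 h RT; stop with 10 mM EDTA + 2 nM Tb-anti-pSTAT1; TR-FRET 520/495. 4-parameter IC50 → pKi (Cheng-Prusoff).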
# Caco-2 cell monolayers = test: Caco-2 permeation assay; format: in vitro ADME; settings: 5 μM, A-B direction, with Verapamil (25 μM)
# In short: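 Compounds tested at 5 μM in duplicate across Caco-2 monolayers, apical-to-basolateral, with 25 μM verapamil to block P-gp, at 37° C., 5% CO2. Apical and basal samples taken at 0 and 120 min, analysed by LC-MS/MS; Papp (cm/sec) calculated as dQ/(dt×Area×concentration).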
# JAK2 = JAK2 (Homo sapiens (Human), UniProt O60674); test: Biochemical JAK2 kinase assay (LanthaScreen)
# Sequence of JAK2 (O60674 whole entry): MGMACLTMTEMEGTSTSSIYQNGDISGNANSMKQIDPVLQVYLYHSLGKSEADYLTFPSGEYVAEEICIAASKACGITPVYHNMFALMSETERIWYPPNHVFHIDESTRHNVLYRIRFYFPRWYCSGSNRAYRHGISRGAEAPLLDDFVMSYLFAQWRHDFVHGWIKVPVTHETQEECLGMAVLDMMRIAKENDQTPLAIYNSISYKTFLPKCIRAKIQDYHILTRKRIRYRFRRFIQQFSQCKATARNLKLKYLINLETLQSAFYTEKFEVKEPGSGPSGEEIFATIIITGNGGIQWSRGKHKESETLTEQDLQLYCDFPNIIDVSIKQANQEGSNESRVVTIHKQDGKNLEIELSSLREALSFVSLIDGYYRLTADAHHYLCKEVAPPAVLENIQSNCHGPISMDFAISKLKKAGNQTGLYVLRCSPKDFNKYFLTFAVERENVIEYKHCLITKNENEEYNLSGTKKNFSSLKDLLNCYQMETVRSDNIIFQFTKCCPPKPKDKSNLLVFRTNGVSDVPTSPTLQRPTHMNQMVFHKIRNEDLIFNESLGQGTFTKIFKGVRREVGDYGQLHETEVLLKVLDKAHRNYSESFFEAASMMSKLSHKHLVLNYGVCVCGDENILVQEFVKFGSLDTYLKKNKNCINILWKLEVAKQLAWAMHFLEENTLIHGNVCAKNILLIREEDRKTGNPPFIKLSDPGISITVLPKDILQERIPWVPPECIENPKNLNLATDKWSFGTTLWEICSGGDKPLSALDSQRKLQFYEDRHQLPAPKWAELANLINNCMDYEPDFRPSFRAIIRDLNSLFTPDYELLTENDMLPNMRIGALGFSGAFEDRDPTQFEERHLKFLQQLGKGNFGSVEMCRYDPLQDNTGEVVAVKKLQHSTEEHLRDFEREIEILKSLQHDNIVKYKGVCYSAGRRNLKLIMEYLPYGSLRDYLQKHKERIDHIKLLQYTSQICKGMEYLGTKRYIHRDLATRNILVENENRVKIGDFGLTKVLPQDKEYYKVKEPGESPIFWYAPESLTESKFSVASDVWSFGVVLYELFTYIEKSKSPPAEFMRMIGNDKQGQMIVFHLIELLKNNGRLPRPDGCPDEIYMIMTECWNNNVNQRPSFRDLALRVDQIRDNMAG
# In short: as §1
# JAK1 = JAK1 (Homo sapiens (Human), UniProt P23458); test: Biochemical JAK1 kinase assay (LanthaScreen)
# Sequence of JAK1 (P23458 whole entry): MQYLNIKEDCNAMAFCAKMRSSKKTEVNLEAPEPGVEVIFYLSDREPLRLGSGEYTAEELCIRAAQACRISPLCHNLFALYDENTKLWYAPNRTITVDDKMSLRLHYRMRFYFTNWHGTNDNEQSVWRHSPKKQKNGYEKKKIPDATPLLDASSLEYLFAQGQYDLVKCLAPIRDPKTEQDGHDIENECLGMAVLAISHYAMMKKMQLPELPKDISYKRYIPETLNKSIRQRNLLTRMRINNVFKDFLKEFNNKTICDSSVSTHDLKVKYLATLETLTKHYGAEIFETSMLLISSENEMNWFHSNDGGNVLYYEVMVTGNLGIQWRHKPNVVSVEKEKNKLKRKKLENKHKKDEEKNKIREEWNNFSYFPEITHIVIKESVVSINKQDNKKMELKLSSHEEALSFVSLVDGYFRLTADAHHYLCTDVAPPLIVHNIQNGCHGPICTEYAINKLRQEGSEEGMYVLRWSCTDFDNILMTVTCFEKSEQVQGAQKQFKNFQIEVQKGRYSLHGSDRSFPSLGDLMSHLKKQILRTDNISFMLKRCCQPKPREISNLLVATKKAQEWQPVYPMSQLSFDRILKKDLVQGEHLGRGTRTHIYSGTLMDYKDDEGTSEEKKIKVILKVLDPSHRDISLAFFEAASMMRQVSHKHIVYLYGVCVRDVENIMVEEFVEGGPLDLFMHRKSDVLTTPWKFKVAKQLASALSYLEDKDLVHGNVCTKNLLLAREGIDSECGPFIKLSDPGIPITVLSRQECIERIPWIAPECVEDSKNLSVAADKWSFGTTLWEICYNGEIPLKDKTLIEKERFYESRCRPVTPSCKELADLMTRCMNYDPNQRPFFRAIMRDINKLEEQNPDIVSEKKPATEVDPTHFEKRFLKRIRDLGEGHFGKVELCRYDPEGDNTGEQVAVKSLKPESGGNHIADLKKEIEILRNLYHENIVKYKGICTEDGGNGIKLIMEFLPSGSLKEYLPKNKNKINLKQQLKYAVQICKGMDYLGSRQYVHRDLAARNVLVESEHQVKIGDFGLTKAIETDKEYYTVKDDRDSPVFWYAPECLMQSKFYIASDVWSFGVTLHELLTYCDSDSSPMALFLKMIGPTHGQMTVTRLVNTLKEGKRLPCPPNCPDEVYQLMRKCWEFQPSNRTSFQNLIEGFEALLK
# In short: as §1
# JAK3 = JAK3 (Homo sapiens (Human), UniProt P52333); test: Biochemical JAK3 kinase assay (LanthaScreen); settings: for JAK3 (pKi)-JAK1 (pKi): selectivity JAK3 over JAK1, difference of pKi
# Sequence of JAK3 (P52333 whole entry): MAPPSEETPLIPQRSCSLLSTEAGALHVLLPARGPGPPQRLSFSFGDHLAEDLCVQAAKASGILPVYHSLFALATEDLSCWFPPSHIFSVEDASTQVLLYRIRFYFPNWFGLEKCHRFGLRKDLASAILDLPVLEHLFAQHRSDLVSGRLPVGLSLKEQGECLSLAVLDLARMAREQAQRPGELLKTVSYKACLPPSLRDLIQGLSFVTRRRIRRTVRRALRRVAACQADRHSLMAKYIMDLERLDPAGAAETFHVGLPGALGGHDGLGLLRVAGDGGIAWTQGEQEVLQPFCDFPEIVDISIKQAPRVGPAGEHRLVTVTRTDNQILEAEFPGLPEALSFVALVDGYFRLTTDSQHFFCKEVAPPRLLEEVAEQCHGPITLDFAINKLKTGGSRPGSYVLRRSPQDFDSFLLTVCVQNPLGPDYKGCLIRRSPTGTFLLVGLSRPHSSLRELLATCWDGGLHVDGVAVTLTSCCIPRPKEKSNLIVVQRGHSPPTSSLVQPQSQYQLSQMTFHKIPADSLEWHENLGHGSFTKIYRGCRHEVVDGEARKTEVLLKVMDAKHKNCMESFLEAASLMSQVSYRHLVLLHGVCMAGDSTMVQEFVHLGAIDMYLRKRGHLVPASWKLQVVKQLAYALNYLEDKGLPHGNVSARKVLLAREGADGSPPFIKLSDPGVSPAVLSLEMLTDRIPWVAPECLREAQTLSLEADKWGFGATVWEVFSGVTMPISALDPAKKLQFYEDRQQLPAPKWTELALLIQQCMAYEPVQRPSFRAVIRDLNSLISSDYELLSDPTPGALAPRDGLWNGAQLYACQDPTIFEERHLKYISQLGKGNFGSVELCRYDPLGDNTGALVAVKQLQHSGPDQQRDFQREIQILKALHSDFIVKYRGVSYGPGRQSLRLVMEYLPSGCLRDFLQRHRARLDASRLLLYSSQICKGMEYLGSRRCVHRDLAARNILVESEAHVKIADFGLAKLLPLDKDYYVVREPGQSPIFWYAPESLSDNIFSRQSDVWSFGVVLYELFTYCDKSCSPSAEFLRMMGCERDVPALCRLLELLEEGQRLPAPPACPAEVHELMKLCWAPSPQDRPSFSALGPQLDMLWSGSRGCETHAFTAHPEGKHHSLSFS
# In short: as §1
# [2] = Colon and plasma mouse pharmacokinetics; format: in vivo; settings: mouse, colon tissue / plasma; male Balb/c mice, 10 mg/kg PO; ratio of the colon AUC to the plasma AUC
# Protocol: Assay 5: Colon and Plasma Mouse Pharmacokinetics
# To 6 male Balb/c mice was administered 10 mg/kg of compound in 1% HPMC+0.1% Tween-80 by PO administration. At 0.5, 2 and 6 hours after dose administration, animals were anesthetized, and terminal blood samples were collected by cardiac puncture, followed by collection of colon contents and colon tissue.
# Blood samples were collected into K2EDTA and stored on wet ice until processed to plasma by centrifugation (12000 rpm at 4° C.). Plasma samples were transferred to cluster tubes and placed on dry ice prior to freezer storage. The colon contents from each animal were collected at each terminal blood collection time point. The colon tissues were flushed with saline and patted dry. The colon and colon content tissues were homogenized using sterile water containing 0.1% formic acid 9:1 (water:tissue, v/w). The homogenized tissues and colon contents were transferred to cluster tubes and placed on dry ice prior to freezer storage. All samples were analyzed using LC/MS/MS against analytical standards.
# The composite pharmacokinetic parameters of the compounds were determined by non-compartmental analysis using Phoenix WinNonlin Version 6 (Certara, St. Louis, Mo.) and using mean values from 2 animals/time point. For plasma concentrations below the quantification limit (BQL), the lowest concentration measurable or the BLOQ (below limit of quantification) was used.
# A colon to plasma ratio was determined as the ratio of the colon AUC to the plasma AUC.
SMILES,Tall-1 (pIC50) [1],Tyk 2 (pKi) (Tyk2),Caco Kp (Caco-2 cell monolayers),JAK 2 (pKi) (JAK2),JAK 1 (pKi) (JAK1),JAK 3 (pKi) (JAK3),JAK3 (pKi)-JAK1 (pKi) (JAK3),Kp [2]
C=CC(=O)N1CC(CCn2c(=O)ccc3cnc(Nc4ccc(N5CCN(S(=O)(=O)CCOC)CC5)cc4)nc32)C1 [Example 76],B (B represents a pC50 value between 6.7 (included) and 7.5 (IC50 between 200 nM and 32 nM)),E (E represents a pKi value of 7 or below (Ki of 100 nM or above)),B (B represents a value between 5×10^−6 and 10×10^−6 cm/sec),E (E represents a pKi value of 7 or below (Ki of 100 nM or above)),E (E represents a pKi value of 7 or below (Ki of 100 nM or above)),B (B represents pKi value between 9 and 10 (Ki between 1 nM and 0.1 nM)),A (A represents a value of 3 or above),> 14
C=CC(=O)N1CCN(CCn2c(=O)ccc3cnc(Nc4ccc(N5CCN(C(C)=O)CC5)cc4)nc32)CC1 [Example 79],B (B represents a pC50 value between 6.7 (included) and 7.5 (IC50 between 200 nM and 32 nM)),E (E represents a pKi value of 7 or below (Ki of 100 nM or above)),A (A represents a value below 5×10^−6 cm/sec),E (E represents a pKi value of 7 or below (Ki of 100 nM or above)),E (E represents a pKi value of 7 or below (Ki of 100 nM or above)),B (B represents pKi value between 9 and 10 (Ki between 1 nM and 0.1 nM)),A (A represents a value of 3 or above),> 1000
C=CC(=O)N1CC(CCn2c(=O)ccc3cnc(Nc4ccc(N(CC)CC)cc4)nc32)C1 [Example 88],B (B represents a pC50 value between 6.7 (included) and 7.5 (IC50 between 200 nM and 32 nM)),E (E represents a pKi value of 7 or below (Ki of 100 nM or above)),D (D represents a value over 30×10^−6 cm/sec),E (E represents a pKi value of 7 or below (Ki of 100 nM or above)),E (E represents a pKi value of 7 or below (Ki of 100 nM or above)),A (A represents a pKi value≥10 (Ki≤0.1 nM)),A (A represents a value of 3 or above),> 14
C=CC(=O)N1CC(CCn2c(=O)ccc3cnc(Nc4ccc(CCN(C)C)cc4)nc32)C1 [Example 89],A (A represents a pIC50 value≥7.5 (IC50≤32 nM)),E (E represents a pKi value of 7 or below (Ki of 100 nM or above)),A (A represents a value below 5×10^−6 cm/sec),E (E represents a pKi value of 7 or below (Ki of 100 nM or above)),E (E represents a pKi value of 7 or below (Ki of 100 nM or above)),B (B represents pKi value between 9 and 10 (Ki between 1 nM and 0.1 nM)),A (A represents a value of 3 or above),> 100
C=CC(=O)N1CC(CCn2c(=O)ccc3cnc(Nc4ccc(N5CCN(C(=O)N(C)C)CC5)cc4)nc32)C1 [Example 92],B (B represents a pC50 value between 6.7 (included) and 7.5 (IC50 between 200 nM and 32 nM)),E (E represents a pKi value of 7 or below (Ki of 100 nM or above)),A (A represents a value below 5×10^−6 cm/sec),E (E represents a pKi value of 7 or below (Ki of 100 nM or above)),E (E represents a pKi value of 7 or below (Ki of 100 nM or above)),B (B represents pKi value between 9 and 10 (Ki between 1 nM and 0.1 nM)),A (A represents a value of 3 or above),> 100
C=CC(=O)N1CC(CCn2c(=O)ccc3cnc(Nc4ccc(N5CCN(S(=O)(=O)C6COC6)CC5)cc4)nc32)C1 [Example 102],B (B represents a pC50 value between 6.7 (included) and 7.5 (IC50 between 200 nM and 32 nM)),E (E represents a pKi value of 7 or below (Ki of 100 nM or above)),A (A represents a value below 5×10^−6 cm/sec),E (E represents a pKi value of 7 or below (Ki of 100 nM or above)),E (E represents a pKi value of 7 or below (Ki of 100 nM or above)),A (A represents a pKi value≥10 (Ki≤0.1 nM)),A (A represents a value of 3 or above),> 1000
C=CC(=O)N1CC(CCn2c(=O)ccc3cnc(Nc4cccc(N5CCN(C(=O)CSC)CC5)c4)nc32)C1 [Example 107],B (B represents a pC50 value between 6.7 (included) and 7.5 (IC50 between 200 nM and 32 nM)),E (E represents a pKi value of 7 or below (Ki of 100 nM or above)),A (A represents a value below 5×10^−6 cm/sec),E (E represents a pKi value of 7 or below (Ki of 100 nM or above)),E (E represents a pKi value of 7 or below (Ki of 100 nM or above)),B (B represents pKi value between 9 and 10 (Ki between 1 nM and 0.1 nM)),A (A represents a value of 3 or above),> 50
C=CC(=O)N1CC(CCn2c(=O)ccc3cnc(Nc4cccc(CN5CCN(C(=O)CCSC)CC5)c4)nc32)C1 [Example 110],A (A represents a pIC50 value≥7.5 (IC50≤32 nM)),E (E represents a pKi value of 7 or below (Ki of 100 nM or above)),B (B represents a value between 5×10^−6 and 10×10^−6 cm/sec),E (E represents a pKi value of 7 or below (Ki of 100 nM or above)),E (E represents a pKi value of 7 or below (Ki of 100 nM or above)),A (A represents a pKi value≥10 (Ki≤0.1 nM)),A (A represents a value of 3 or above),> 1000
C=CC(=O)N1CC(CCn2c(=O)ccc3cnc(Nc4cccc(CN5CCN(C(=O)COC)CC5)c4)nc32)C1 [Example 112],B (B represents a pC50 value between 6.7 (included) and 7.5 (IC50 between 200 nM and 32 nM)),E (E represents a pKi value of 7 or below (Ki of 100 nM or above)),A (A represents a value below 5×10^−6 cm/sec),E (E represents a pKi value of 7 or below (Ki of 100 nM or above)),E (E represents a pKi value of 7 or below (Ki of 100 nM or above)),A (A represents a pKi value≥10 (Ki≤0.1 nM)),A (A represents a value of 3 or above),> 100
C=CC(=O)N1CC(CCn2c(=O)ccc3cnc(Nc4cccc(CN5CCN(C(C)=O)CC5)c4)nc32)C1 [Example 133],B (B represents a pC50 value between 6.7 (included) and 7.5 (IC50 between 200 nM and 32 nM)),E (E represents a pKi value of 7 or below (Ki of 100 nM or above)),A (A represents a value below 5×10^−6 cm/sec),E (E represents a pKi value of 7 or below (Ki of 100 nM or above)),E (E represents a pKi value of 7 or below (Ki of 100 nM or above)),A (A represents a pKi value≥10 (Ki≤0.1 nM)),A (A represents a value of 3 or above),> 100
